{"source": "patent US20220054493A1", "about": "“INHIBITORS OF NGAL PROTEIN” (INSERM (INSTITUT NATIONAL DE LA SANTÉ ET DE LA RECHERCHE …, priority 2019, published 2022)", "key": {"[1]": {"system": "Myocardial Infarction Model", "assay": "Cardiac fibrosis and collagen immunostaining in the myocardial infarction model", "type": "in vivo, mice", "conditions": "MI model, 100 mg/kg/day in food admix, three months", "description": "After assessment of cardiac hemodynamics, the heart was removed, and the atria and the ventricles were separated and weighed individually. A section of the left ventricle was immersed in Bouin fixative solution. After fixation, the sections were dehydrated and embedded in paraffin. From these sections, […] histologic slices were obtained and were stained with Sirius Red. For the measurement of cardiac collagen density, slides were examined and photographed under a light microscope (Zeiss) at 40× magnification. Collagen content was calculated as percentage of collagen area to total area of the image. Perivascular collagen was excluded from the analysis.\nFrozen mid-LV sections are thawed at room temperature (30 min), immersed in acetone, rinsed in PBS (1×) and immersed in BSA (10 min each). Slides are then incubated with primary rabbit anti-human collagen-I Ab (Abcam ab 34710) (dilution 1/1000) and primary goat anti-human collagen-III Ab (Rnd NBP1 26547) (dilution 1/500) for 1 hour. Thereafter, slides are rinsed three times in PBS (1×) before being incubated with secondary antibodies donkey […] coupled with FITC (Jackson immunosearch 715-095-151) and donkey anti-goat coupled with Cy3 (Interchim A50-201D3) (dilution 1/400). After three rinses in PBS (1×), slides are mounted with a cover slip on a vecatshield+DAPI medium (Vector Laboratories). A minimum of 8/slide microscopic photographs (×20) were taken from Axiocam-Z1 (Zeiss) fluorescence microscope and analyzed with Image Pro-plus Software. Results are shown as mean±esm."}, "hERG channel": {"biological_target": "T1, hERG channel (Homo sapiens, UniProt Q12809)", "T1 construct": "purchased Thermo Fisher Scientific", "T1 sequence (Q12809 whole entry)": "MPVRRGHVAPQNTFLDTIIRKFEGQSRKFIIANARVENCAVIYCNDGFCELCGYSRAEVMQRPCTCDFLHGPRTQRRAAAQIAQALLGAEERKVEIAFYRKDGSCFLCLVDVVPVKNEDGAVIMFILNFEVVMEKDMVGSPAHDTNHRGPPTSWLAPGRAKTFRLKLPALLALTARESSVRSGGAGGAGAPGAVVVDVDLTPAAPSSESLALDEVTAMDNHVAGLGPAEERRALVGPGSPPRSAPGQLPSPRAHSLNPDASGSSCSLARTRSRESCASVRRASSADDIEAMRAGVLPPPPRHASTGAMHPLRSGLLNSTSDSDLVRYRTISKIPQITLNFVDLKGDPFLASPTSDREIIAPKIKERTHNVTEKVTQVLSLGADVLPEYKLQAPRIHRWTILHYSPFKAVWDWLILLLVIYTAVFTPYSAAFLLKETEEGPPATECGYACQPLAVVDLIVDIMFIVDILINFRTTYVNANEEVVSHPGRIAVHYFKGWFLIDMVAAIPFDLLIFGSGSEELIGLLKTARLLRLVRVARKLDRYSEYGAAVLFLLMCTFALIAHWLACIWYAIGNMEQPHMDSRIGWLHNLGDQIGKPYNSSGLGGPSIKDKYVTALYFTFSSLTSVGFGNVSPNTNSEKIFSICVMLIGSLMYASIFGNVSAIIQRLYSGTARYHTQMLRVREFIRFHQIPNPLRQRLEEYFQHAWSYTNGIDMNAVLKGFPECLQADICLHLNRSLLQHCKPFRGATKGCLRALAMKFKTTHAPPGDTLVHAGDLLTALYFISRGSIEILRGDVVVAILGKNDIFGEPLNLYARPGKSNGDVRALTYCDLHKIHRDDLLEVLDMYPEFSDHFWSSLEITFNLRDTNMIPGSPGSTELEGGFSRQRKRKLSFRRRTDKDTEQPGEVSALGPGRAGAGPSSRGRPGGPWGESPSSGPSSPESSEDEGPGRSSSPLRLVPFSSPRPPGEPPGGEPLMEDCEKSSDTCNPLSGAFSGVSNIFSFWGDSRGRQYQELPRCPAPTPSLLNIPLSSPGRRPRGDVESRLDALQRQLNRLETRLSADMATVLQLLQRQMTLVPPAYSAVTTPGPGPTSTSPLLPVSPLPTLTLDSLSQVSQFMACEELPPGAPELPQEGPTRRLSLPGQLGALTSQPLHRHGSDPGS", "assay": "Cardiotoxicity, Predictor hERG fluorescence polarization kit", "type": "binding", "description": "Two specific toxicity assays have been performed to assess hepatoxicity and cardiotoxicity. Hepatotoxicity was evaluated in isolated hepatocytes from swiss mice and determined by the MTT colorimetric assay. Cardiotoxicity was evaluated using the commercially available Predictor hERG fluorescence polarization kit (Thermo Fisher Scientific). Several ADME assays have been carried out on the compounds generated throughout the project. The following experiments were undertaken: Stability in human microsomes, binding to human plasma protein, and CYP3A4 inhibition assay (Vivid CYP3A4 assay, Thermo Fisher Scientific). Physico-chemical properties were also assessed such as aqueous solubility and chemical stability."}, "CKD Mouse Model": {"system": "CKD Mouse Model", "assay": "Blood pressure in the CKD mouse model (subtotal nephrectomy)", "type": "in vivo, mice", "conditions": "two months administration; FIG. 13", "description": "Systolic BP was measured by tail-cuff plethysmography in trained conscious mice at weeks 8-10 using a BP2000 Visitech model. BP was measured every day in the same room at the same hour for 5 consecutive days. The BP measurements (expressed as mmHg) presented are the averages of the last 3 days\nChronic kidney disease (CKD) was induced by subtotal nephrectomy (Nx) in eight-weeks-old FVB male mice (25-26 g). All surgeries were performed under ketamine/xylazine anaesthesia. Briefly, the left kidney was exposed, and the upper and lower poles were tied with a poly-glycolic acid suture line. The peritoneum and skin were then sutured, and the animals were returned to their individual cages. After one week of recovery, the second kidney was removed. Removal of the second kidney represents TO. Sham mice were subjected to the same surgical procedures but neither renal poles nor the right kidney were removed. Mice were monitored for any sign of distress, and those observed to be experiencing severe, unrelievable pain were euthanized. Renal failure was assessed by the measure of plasma creatinine and urea with an automatic analyser (Konelab 20i; Thermo Fisher Scientific, Vernon Hills, Ill.) at weeks 4 and 10 post-Nx."}, "[2]": {"system": "Salt-sensitive hypertension", "assay": "Salt-sensitive hypertension (L-NAME plus High Salt Diet)", "type": "in vivo, mice", "conditions": "GP1 100 mg/kg/day in food, 10 days; FIG. 17", "description": "Systolic BP was measured by tail-cuff plethysmography in trained conscious mice at weeks 8-10 using a BP2000 Visitech model. BP was measured every day in the same room at the same hour for 5 consecutive days. The BP measurements (expressed as mmHg) presented are the averages of the last 3 days Salt-sensitive hypertension was induced by co-administration of L-NAME 70 mg/l in drinking water together with 8% NaCl in chow food (High Salt Diet, HSD) for 10 days. GP1 (100 mg/kg/day) was added or not into the food. Control experiments included vehicle (control), L-NAME or high salt (HSD) alone. Systolic blood pressure (expressed as mmHg) was estimated in the last 3 days of treatment."}}}
{"smiles": "CC(=O)c1cccc(S(=O)(=O)NCc2ccccc2-n2cccn2)c1", "note": "[GPZ614741]", "values": [{"measurement": "LV interstitial collagen density", "setting": "[1]; FIG. 9 panel A", "result": "significant decrease"}, {"measurement": "Col I immunostaining", "setting": "[1]; FIG. 9 panel B", "result": "decrease"}, {"measurement": "Col III immunostaining", "setting": "[1]; FIG. 9 panel C", "result": "decrease"}, {"measurement": "cardiotoxicity (hERG predictor assay)", "setting": "hERG channel", "result": "no toxicity"}, {"measurement": "Cardiotoxicity % (100 = no toxicity)", "setting": "hERG channel; 100 = no toxicity", "result": "101.76 ± 2.48", "unit": "%"}, {"measurement": "increase of blood pressure induced by CKD", "setting": "CKD Mouse Model", "result": "prevented the increase"}, {"measurement": "increase of blood pressure induced by the combination of L-NAME and high salt (HSD)", "setting": "[2]", "result": "prevented the increase"}]}
